For the assay, the system named is L1210 leukemia ip in BDF1 mice, survival T/C. Nature of the assay: NCI In Vivo Anticancer Drug Screen. Data for tumor model L1210 Leukemia (intraperitoneal) in B6D2F1 (BDF1) mice. The following applies: endpoint: mean survival time, higher = longer survival. The method, boiled down: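 Tumor was transplanted into mice, which were then dosed with test compound or vehicle alone. Survival was recorded for each group, and the treated figure was expressed relative to the control figure.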

Setting [1] is: dose: 100.0 mg/kg/injection, schedule: Q01DX001 (ip), vehicle: saline.
Setting [2] is: dose: 200.0 mg/kg/injection, schedule: Q01DX001 (ip), vehicle: saline.
The mark [3] stands for this setting: dose: 400.0 mg/kg/injection, schedule: Q01DX001 (ip), vehicle: saline.
[4] abbreviates: dose: 50.0 mg/kg/injection, schedule: Q01DX001 (ip), vehicle: saline.
The mark [5] stands for this setting: dose: 100.0 mg/kg/injection, schedule: Q04DX003 (ip), vehicle: saline with Tween-80.
The mark [6] stands for this setting: dose: 200.0 mg/kg/injection, schedule: Q04DX003 (ip), vehicle: saline with Tween-80.
Where [7] appears, read: dose: 400.0 mg/kg/injection, schedule: Q04DX003 (ip), vehicle: saline with Tween-80.
Setting [8] is: dose: 100.0 mg/kg/injection, schedule: Q01DX001 (ip), vehicle: Klucel (hydroxypropylcellulose) (HPC).
Setting [9] is: dose: 100.0 mg/kg/injection, schedule: Q04DX003 (ip), vehicle: Klucel (hydroxypropylcellulose) (HPC).
The mark [10] stands for this setting: dose: 100.0 mg/kg/injection, schedule: Q01DX009 (ip), vehicle: Klucel (hydroxypropylcellulose) (HPC).
The mark [11] stands for this setting: dose: 200.0 mg/kg/injection, schedule: Q01DX009 (ip), vehicle: Klucel (hydroxypropylcellulose) (HPC).
Where [12] appears, read: dose: 200.0 mg/kg/injection, schedule: Q04DX003 (ip), vehicle: Klucel (hydroxypropylcellulose) (HPC).
Setting [13] is: dose: 400.0 mg/kg/injection, schedule: Q01DX009 (ip), vehicle: Klucel (hydroxypropylcellulose) (HPC).
The mark [14] stands for this setting: dose: 400.0 mg/kg/injection, schedule: Q04DX003 (ip), vehicle: Klucel (hydroxypropylcellulose) (HPC).
[15] abbreviates: dose: 25.0 mg/kg/injection, schedule: Q04DX003 (ip), vehicle: Klucel (hydroxypropylcellulose) (HPC).
The mark [16] stands for this setting: dose: 50.0 mg/kg/injection, schedule: Q04DX003 (ip), vehicle: Klucel (hydroxypropylcellulose) (HPC).
Setting [17] is: dose: 50.0 mg/kg/injection, schedule: Q01DX009 (ip), vehicle: Klucel (hydroxypropylcellulose) (HPC).

We go through 23 molecules from PubChem BioAssay AID248 (DTP/NCI, 2004).

Inconclusive results and toxic doses are left out.

Consider `Brc1nc(-c2ccccc2)c(-c2ccccc2)nc1Br`, for which the T/C under setting [1] is 96 % of control, the T/C under setting [2] was 88 % of control and the T/C under setting [3] was 88 % of control.

Consider `Nc1ccccc1S.[Ag]`, for which the T/C runs as follows: under setting [4], 95 % of control; under setting [1], 86 % of control; under setting [2], 91 % of control; under setting [3], 91 % of control.

`O=S(=O)(Oc1ccc(Br)cc1)C1CC1c1ccccc1` (stereo unspecified): the T/C is 106 % of control under setting [1], 98 % of control under setting [2] and 103 % of control under setting [3].

`CNC(=O)Nc1ccccc1`: the T/C runs as follows: under setting [5], 94 % of control; under setting [6], 90 % of control; under setting [7], 94 % of control.

In the case of `CCCCOC(=O)c1ccc(NC(=O)C(Cl)Cl)cc1`, the T/C by setting is: (dose: 100.0 mg/kg/injection, schedule: Q04DX003 (ip), vehicle: saline) 99 % of control; (dose: 200.0 mg/kg/injection, schedule: Q04DX003 (ip), vehicle: saline) 89 % of control; (dose: 400.0 mg/kg/injection, schedule: Q04DX003 (ip), vehicle: saline) 89 % of control.

For the molecule `COC1OCC(N=[N+]=[N-])C(OS(C)(=O)=O)C1OS(C)(=O)=O` (stereo unspecified), the T/C under setting [5] is 94 % of control, the T/C under setting [6] was 90 % of control and the T/C under setting [7] was 92 % of control.

In the case of `Cc1ccc(S(N)(=O)=O)cc1S(N)(=O)=O`, the T/C is, setting by setting: under setting [8], 94 % of control; (dose: 200.0 mg/kg/injection, schedule: Q01DX001 (ip), vehicle: Klucel (hydroxypropylcellulose) (HPC)) 92 % of control; (dose: 400.0 mg/kg/injection, schedule: Q01DX001 (ip), vehicle: Klucel (hydroxypropylcellulose) (HPC)) 105 % of control.

As for `CNC1CCCc2ccccc2C1O` (stereo unspecified), under setting [1], the T/C was 102 % of control.

In the case of `O=C(c1ccccc1)C(C(=O)c1ccccc1)C(C[N+](=O)[O-])c1ccccc1` (stereo unspecified), the T/C (dose: 100.0 mg/kg/injection, schedule: Q01DX001 (ip), vehicle: gum acacia) is 86 % of control; the T/C (dose: 200.0 mg/kg/injection, schedule: Q01DX001 (ip), vehicle: gum acacia) was 86 % of control; the T/C (dose: 400.0 mg/kg/injection, schedule: Q01DX001 (ip), vehicle: gum acacia) was 90 % of control.

In the case of `COC1=C(Nc2ccc(C)cc2)C(=O)C(OC)=C(Nc2ccc(C)cc2)C1=O`, the T/C was 98 % of control under setting [4], 93 % of control under setting [1] and 95 % of control under setting [2].

Turning to `CS(=O)(=O)OCCN(CCOS(C)(=O)=O)c1ccc(C=Nc2cccc(Br)c2)cc1`, the T/C (dose: 2.5 mg/kg/injection, schedule: Q04DX003 (ip), vehicle: Klucel (hydroxypropylcellulose) (HPC)) is 103 % of control; the T/C (dose: 5.0 mg/kg/injection, schedule: Q04DX003 (ip), vehicle: Klucel (hydroxypropylcellulose) (HPC)) is 109 % of control; the T/C (dose: 10.0 mg/kg/injection, schedule: Q04DX003 (ip), vehicle: Klucel (hydroxypropylcellulose) (HPC)) is 117 % of control; the T/C under setting [9] was 92 % of control.

As for `O=C(O)/C=C/C(=O)Nc1ccccc1`, the T/C was 90 % of control under setting [10]; 93 % of control under setting [9]; 97 % of control under setting [11]; 95 % of control under setting [12]; 100 % of control under setting [13]; 95 % of control under setting [14].

For `CC1=C(N2CC2)C(=O)c2ccccc2C1=O`, the T/C was 98 % of control (dose: 12.5 mg/kg/injection, schedule: Q04DX003 (ip), vehicle: Klucel (hydroxypropylcellulose) (HPC)); 102 % of control under setting [15]; 102 % of control under setting [16]; 102 % of control under setting [8]; 102 % of control under setting [9].

With `O=C(CCNNC(=O)c1ccncc1)NCc1ccccc1`, the T/C is, setting by setting: (dose: 25.0 mg/kg/injection, schedule: Q01DX009 (ip), vehicle: Klucel (hydroxypropylcellulose) (HPC)) 101 % of control; under setting [15], 101 % of control; under setting [17], 110 % of control; under setting [16], 114 % of control; under setting [10], 97 % of control; under setting [9], 95 % of control. The T/C under setting [11] was 101 % of control, the T/C under setting [12] is 86 % of control, the T/C under setting [13] is 101 % of control and the T/C under setting [14] was 95 % of control.

In the case of `N#CNc1nc(-c2ccccc2)cc(-c2ccccc2O)n1`, the T/C was 98 % of control (dose: 100.0 mg/kg/injection, schedule: Q04DX002 (ip), vehicle: Klucel (hydroxypropylcellulose) (HPC)); 95 % of control (dose: 200.0 mg/kg/injection, schedule: Q04DX002 (ip), vehicle: Klucel (hydroxypropylcellulose) (HPC)); 109 % of control (dose: 400.0 mg/kg/injection, schedule: Q04DX002 (ip), vehicle: Klucel (hydroxypropylcellulose) (HPC)).

`CCC1CCC(NC(=O)N(CCF)N=O)CC1` (stereo unspecified): the T/C runs as follows: (dose: 12.0 mg/kg/injection, schedule: Q01DX001 (ip), vehicle: other) 105 % of control; (dose: 18.0 mg/kg/injection, schedule: Q01DX001 (ip), vehicle: other) 114 % of control; (dose: 60.0 mg/kg/injection, schedule: Q01DX001 (ip), vehicle: other) 215 % of control; (dose: 93.0 mg/kg/injection, schedule: Q01DX001 (ip), vehicle: other) 223 % of control.

Take `O=Nc1ccc2ccccc2c1N=Nc1ccccc1C(=O)O`: the T/C is, setting by setting: under setting [10], 101 % of control; under setting [11], 100 % of control; under setting [13], 103 % of control.

Turning to `COc1cc2c(c(OC)c1OC)-c1ccc(SC)c(=O)cc1C(N=Cc1ccccc1)CC2` (stereo unspecified), the T/C under setting [5] is 106 % of control and the T/C under setting [6] was 90 % of control.

Consider `CN(C)C=O.CN(C)C=O.[Cl][Sn]([Cl])([Cl])[Cl]`, for which the T/C runs as follows: under setting [17], 103 % of control; under setting [10], 93 % of control; under setting [9], 92 % of control; under setting [12], 92 % of control.

For `CCC(C)N(CCNc1cc(C)nc(/N=C(\N)Nc2ccc(Cl)c(Cl)c2)n1)C(C)CC` (stereo unspecified), the T/C by setting is: under setting [10], 106 % of control; under setting [11], 97 % of control; under setting [13], 86 % of control.

With `Brc1cc(Br)c2[nH]c3c(Br)cc(Br)cc3c2c1`, the T/C reads like this: under setting [10], 101 % of control; under setting [11], 102 % of control.

For the molecule `CCCOC(c1ccc2c(c1)OCO2)C(C)Br` (stereo unspecified), the T/C is, setting by setting: under setting [5], 97 % of control; under setting [6], 94 % of control; under setting [7], 94 % of control.

Regarding `COc1ccccc1-n1c(O)c(N=Nc2ccccc2C)c(=O)n(-c2ccccc2OC)c1=S`, the T/C is 96 % of control under setting [9], 94 % of control under setting [12] and 100 % of control under setting [14].
